Usually IC50 stands for the point on the concentration scale where inhibition reaches its midpoint.

Structures are written as SMILES. Where a name gives a salt, the structure may show the parent alone. Read-outs that look alike come from different tables or passages of the source.

One assay deals with T1, Rat FAAH (Rattus norvegicus, UniProt P97612).
T1 construct: expressed in transfected cells; host or cells: SK-N-MC cells stably transfected with rat FAAH cDNA (G418 selection)
T1 sequence (P97612 1-579): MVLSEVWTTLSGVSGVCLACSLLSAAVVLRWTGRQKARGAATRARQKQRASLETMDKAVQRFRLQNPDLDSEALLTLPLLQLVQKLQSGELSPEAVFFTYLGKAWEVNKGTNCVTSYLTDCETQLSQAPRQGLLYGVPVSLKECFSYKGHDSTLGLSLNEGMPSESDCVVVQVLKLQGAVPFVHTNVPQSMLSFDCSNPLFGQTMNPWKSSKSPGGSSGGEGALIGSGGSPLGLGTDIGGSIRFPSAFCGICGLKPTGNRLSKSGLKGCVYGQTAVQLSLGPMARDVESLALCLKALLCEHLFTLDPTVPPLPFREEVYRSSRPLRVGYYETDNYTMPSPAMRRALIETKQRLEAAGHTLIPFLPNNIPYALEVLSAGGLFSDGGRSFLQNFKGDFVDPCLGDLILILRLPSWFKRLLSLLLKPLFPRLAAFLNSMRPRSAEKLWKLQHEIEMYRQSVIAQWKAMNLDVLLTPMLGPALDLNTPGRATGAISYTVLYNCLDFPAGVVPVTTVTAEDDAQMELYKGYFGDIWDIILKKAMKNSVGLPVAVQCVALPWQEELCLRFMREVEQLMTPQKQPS
As to the kind of experiment: Assay Method 2: rat FAAH assay (3H-anandamide hydrolysis in cell homogenate). Format: biochemical. A digest of the protocol:
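Homogenates of T84 cells or SK-N-MC cells stably transfected with rat FAAH, in pH 9 Tris/EDTA/glycerol/Triton buffer, incubated 1 h at room temperature with 3H-anandamide. Released labeled ethanolamine separated from substrate on activated charcoal and counted by scintillation; values averaged over runs.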

The next assay concerns the target T2, FAAH (Homo sapiens, UniProt O00519).
T2 sequence (O00519 1-579): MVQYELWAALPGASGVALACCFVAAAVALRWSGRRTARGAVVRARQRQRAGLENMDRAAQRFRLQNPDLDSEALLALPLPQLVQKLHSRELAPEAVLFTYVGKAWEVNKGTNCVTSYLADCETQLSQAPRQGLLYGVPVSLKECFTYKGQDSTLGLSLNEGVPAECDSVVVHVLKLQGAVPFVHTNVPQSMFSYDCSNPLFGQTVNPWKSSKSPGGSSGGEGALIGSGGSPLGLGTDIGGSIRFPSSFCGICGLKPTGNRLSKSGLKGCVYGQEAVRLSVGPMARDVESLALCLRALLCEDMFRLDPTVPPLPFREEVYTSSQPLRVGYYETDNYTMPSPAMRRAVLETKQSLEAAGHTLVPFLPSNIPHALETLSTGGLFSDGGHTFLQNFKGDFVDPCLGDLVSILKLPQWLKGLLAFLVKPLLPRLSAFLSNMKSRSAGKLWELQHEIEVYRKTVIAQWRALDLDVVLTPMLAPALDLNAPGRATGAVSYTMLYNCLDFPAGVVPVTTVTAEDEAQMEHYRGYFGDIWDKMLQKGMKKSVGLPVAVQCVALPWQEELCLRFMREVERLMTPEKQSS
As to the kind of experiment: Assay Method 1: human FAAH assay (3H-anandamide hydrolysis in cell homogenate). It counts as biochemical. Further details: expressed in transfected cells; host or cells: SK-N-MC cells stably transfected with human FAAH cDNA (G418 selection); alternatively T84 cell pellets. A digest of the protocol: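 Homogenates of T84 cells or SK-N-MC cells stably transfected with human FAAH, in pH 9 Tris/EDTA buffer with 0.02% Triton X-100. Incubated 1 h at rt with compound and 80 nM (final) [3H-ethanolamine]-anandamide. Released 3H-ethanolamine separated on charcoal filters and counted by scintillation.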

On to `O=C(Nc1ccc(-n2nccn2)nc1)N1CCCC2(CN(Cc3cccc(Oc4ccc(Cl)cc4)c3)C2)C1` [Example 27, N-(6-(2H-1,2,3-triazol-2-yl)pyridin-3-yl)-2-(3-(4-chlorophenoxy)benzyl)-2,6-diazaspiro[3.5]nonane-6-carboxamide], for which the concentration for half-maximal inhibition (IC50) turned out to be 200 nM at Rat FAAH (read-out: Assay 2 IC50) and 800 nM on FAAH (read-out: Assay 1 IC50).

`O=C(Nc1cnc2cccnn12)N1CC2(CCN(Cc3cccc(Oc4ccc(Cl)cc4)c3)CC2)C1` [Example 28, 7-(3-(4-chlorophenoxy)benzyl)-N-(imidazo[1,2-b]pyridazin-3-yl)-2,7-diazaspiro[3.5]nonane-2-carboxamide]: the 50% inhibitory concentration (IC50) on Rat FAAH (read-out: Assay 2 IC50) amounted to 10 nM; at FAAH, 320 nM.

As to `O=C(Nc1cnc2ccccn12)N1CC2(CCN(Cc3cccc(Oc4ccc(Cl)cc4)c3)CC2)C1` [Example 29, 7-(3-(4-chlorophenoxy)benzyl)-N-(imidazo[1,2-a]pyridin-3-yl)-2,7-diazaspiro[3.5]nonane-2-carboxamide], the IC50 is 10 nM on Rat FAAH (read-out: Assay 2 IC50) and 220 nM at FAAH (read-out: Assay 1 IC50).

Consider `O=C(Nc1cnccc1Cl)N1CCCC2(CN(Cc3cccc(Oc4ccc(Cl)cc4)c3)C2)C1` [Example 30, 2-(3-(4-chlorophenoxy)benzyl)-N-(4-chloropyridin-3-yl)-2,6-diazaspiro[3.5]nonane-6-carboxamide], for which the half-inhibitory concentration (IC50) at Rat FAAH (read-out: Assay 2 IC50) came out at 120 nM; at FAAH (read-out: Assay 1 IC50), 1600 nM.

For `O=C(Nc1cnc2ccccc2c1)N1CCC2(CCN(Cc3cccc(Oc4ccc(Cl)cc4)c3)CC2)CC1` [Example 33, 9-(3-(4-chlorophenoxy)benzyl)-N-(quinolin-3-yl)-3,9-diazaspiro[5.5]undecane-3-carboxamide], the IC50 worked out at 10 nM on Rat FAAH (read-out: Assay 2 IC50) and 70 nM on FAAH (read-out: Assay 1 IC50).

In the case of `O=C(Nc1cnc2ccccn12)N1CCCC2(CN(Cc3cccc(Oc4ccc(Cl)cc4)c3)C2)C1` [Example 34, 2-(3-(4-chlorophenoxy)benzyl)-N-(imidazo[1,2-a]pyridin-3-yl)-2,6-diazaspiro[3.5]nonane-6-carboxamide], the IC50 on Rat FAAH (read-out: Assay 2 IC50) is 120 nM; on FAAH (read-out: Assay 1 IC50) it was more than 10000 nM.

In the case of `O=C(Nc1cccnc1)N1CC2(CN(Cc3cccc(Oc4ccc(Cl)cc4)c3)C2)C1` [Example 35, 6-(3-(4-chlorophenoxy)benzyl)-N-(pyridin-3-yl)-2,6-diazaspiro[3.3]heptane-2-carboxamide], the figures for the IC50 on Rat FAAH (read-out: Assay 2 IC50) and on FAAH (read-out: Assay 1 IC50) were 700 nM and 30 nM, respectively.

In the case of `O=C(Nc1cnccc1Cl)N1CC2(CN(Cc3cccc(Oc4ccc(Cl)cc4)c3)C2)C1` [Example 36, 6-(3-(4-chlorophenoxy)benzyl)-N-(4-chloropyridin-3-yl)-2,6-diazaspiro[3.3]heptane-2-carboxamide], the IC50 at Rat FAAH (read-out: Assay 2 IC50) is 30 nM; on FAAH (read-out: Assay 1 IC50), 10 nM.

For `O=C(Nc1cccnc1)N1CC2(CCN(Cc3cccc(Oc4ccc(Cl)cc4)c3)CC2)C1` [Example 37, 7-[3-(4-Chloro-phenoxy)-benzyl]-2,7-diaza-spiro[3.5]nonane-2-carboxylic acid pyridin-3-ylamide], the 50% inhibitory concentration (IC50) at Rat FAAH (read-out: Assay 2 IC50) was 60 nM; on FAAH (read-out: Assay 1 IC50), 90 nM.

Turning to `O=C(Nc1noc2ccccc12)N1CC2(CCN(Cc3cccc(Oc4ccc(Cl)cc4)c3)CC2)C1` [Example 38, 7-[3-(4-Chloro-phenoxy)-benzyl]-2,7-diaza-spiro[3.5]nonane-2-carboxylic acid benzo[d]isoxazol-3-ylamide], the figures for the half-maximal inhibitory concentration (IC50) at Rat FAAH (read-out: Assay 2 IC50) and at FAAH (read-out: Assay 1 IC50) were 20 nM and 820 nM, respectively.

Turning to `O=C(Nc1ccc(-n2nccn2)nc1)N1CC2(CCN(Cc3cccc(Oc4ccc(Cl)cc4)c3)CC2)C1` [Example 39, 7-[3-(4-Chloro-phenoxy)-benzyl]-2,7-diaza-spiro[3.5]nonane-2-carboxylic acid (6-[1,2,3]triazol-2-yl-pyridin-3-yl)-amide], the IC50 on Rat FAAH (read-out: Assay 2 IC50) and on FAAH (read-out: Assay 1 IC50) was 20 nM throughout.

Take `O=C(Nc1cnc2[nH]ccc2c1)N1CC2(CCN(Cc3cccc(Oc4ccc(Cl)cc4)c3)CC2)C1` [Example 40, 7-[3-(4-Chloro-phenoxy)-benzyl]-2,7-diaza-spiro[3.5]nonane-2-carboxylic acid (1H-pyrrolo[2,3-b]pyridin-5-yl)-amide, trifluoroacetic acid salt]: the figures for the IC50 on Rat FAAH (read-out: Assay 2 IC50) and at FAAH (read-out: Assay 1 IC50) were 40 nM and 60 nM, respectively.

On to `O=C(Nc1ccc(-n2nccn2)cc1)N1CC2(CCN(Cc3cccc(Oc4ccc(Cl)cc4)c3)CC2)C1` [Example 41, 7-[3-(4-Chloro-phenoxy)-benzyl]-2,7-diaza-spiro[3.5]nonane-2-carboxylic acid (4-[1,2,3]triazol-2-yl-phenyl)-amide, trifluoroacetic acid salt], for which the concentration for half-maximal inhibition (IC50) was 80 nM at Rat FAAH (read-out: Assay 2 IC50) and 20 nM on FAAH (read-out: Assay 1 IC50).

For the compound `O=C(Nc1ncccn1)N1CC2(CCN(Cc3cccc(Oc4ccc(Cl)cc4)c3)CC2)C1` [Example 42, 7-[3-(4-Chloro-phenoxy)-benzyl]-2,7-diaza-spiro[3.5]nonane-2-carboxylic acid pyrimidin-2-ylamide, trifluoroacetic acid salt], the IC50 on Rat FAAH (read-out: Assay 2 IC50) is 1000 nM; at FAAH (read-out: Assay 1 IC50), more than 10000 nM.

`O=C(Nc1ccncn1)N1CC2(CCN(Cc3cccc(Oc4ccc(Cl)cc4)c3)CC2)C1` [Example 43, 7-[3-(4-Chloro-phenoxy)-benzyl]-2,7-diaza-spiro[3.5]nonane-2-carboxylic acid pyrimidin-4-ylamide, trifluoroacetic acid salt]: the IC50 against Rat FAAH was 5440 nM; at FAAH, 5660 nM.

`O=C(Nc1cccnn1)N1CC2(CCN(Cc3cccc(Oc4ccc(Cl)cc4)c3)CC2)C1` [Example 44, 7-[3-(4-Chloro-phenoxy)-benzyl]-2,7-diaza-spiro[3.5]nonane-2-carboxylic acid pyridazin-3-ylamide, trifluoroacetic acid salt]: the figures for the IC50 at Rat FAAH and at FAAH (read-out: Assay 1 IC50) were 260 nM and 430 nM, respectively.

Consider `O=C(Nc1ccc(-n2cccn2)nc1)N1CC2(CCN(Cc3cccc(Oc4ccc(Cl)cc4)c3)CC2)C1` [Example 45, 7-[3-(4-Chloro-phenoxy)-benzyl]-2,7-diaza-spiro[3.5]nonane-2-carboxylic acid (6-pyrazol-1-yl-pyridin-3-yl)-amide, trifluoroacetic acid salt], for which the IC50 on Rat FAAH (read-out: Assay 2 IC50) turned out to be 100 nM; at FAAH (read-out: Assay 1 IC50), 40 nM.

For `O=C(Nc1ccc(-n2cncn2)nc1)N1CC2(CCN(Cc3cccc(Oc4ccc(Cl)cc4)c3)CC2)C1` [Example 46, 7-[3-(4-Chloro-phenoxy)-benzyl]-2,7-diaza-spiro[3.5]nonane-2-carboxylic acid (6-[1,2,4]triazol-1-yl-pyridin-3-yl)-amide, trifluoroacetic acid salt], the concentration for half-maximal inhibition (IC50) on Rat FAAH (read-out: Assay 2 IC50) and at FAAH (read-out: Assay 1 IC50) was 1000 nM each time.

`O=C(Nc1ccc(Cl)nc1)N1CC2(CCN(Cc3cccc(Oc4ccc(Cl)cc4)c3)CC2)C1` [Example 48, 7-[3-(4-Chloro-phenoxy)-benzyl]-2,7-diaza-spiro[3.5]nonane-2-carboxylic acid (6-chloro-pyridin-3-yl)-amide, trifluoroacetic acid salt]: the values for the concentration for half-maximal inhibition (IC50) at Rat FAAH (read-out: Assay 2 IC50) and at FAAH (read-out: Assay 1 IC50) were 8000 nM and 1500 nM, respectively.

On to `COc1ccc(NC(=O)N2CC3(CCN(Cc4cccc(Oc5ccc(Cl)cc5)c4)CC3)C2)cn1` [Example 49, 7-[3-(4-Chloro-phenoxy)-benzyl]-2,7-diaza-spiro[3.5]nonane-2-carboxylic acid (6-methoxy-pyridin-3-yl)-amide, trifluoroacetic acid salt], for which the IC50 was 8000 nM on Rat FAAH (read-out: Assay 2 IC50) and 1800 nM at FAAH (read-out: Assay 1 IC50).

On to `N#Cc1ccc(NC(=O)N2CC3(CCN(Cc4cccc(Oc5ccc(Cl)cc5)c4)CC3)C2)cn1` [Example 50, 7-[3-(4-Chloro-phenoxy)-benzyl]-2,7-diaza-spiro[3.5]nonane-2-carboxylic acid (6-cyano-pyridin-3-yl)-amide, trifluoroacetic acid salt], for which the IC50 on Rat FAAH (read-out: Assay 2 IC50) is 8000 nM; on FAAH (read-out: Assay 1 IC50) it was 820 nM.

For the origin of these results see patent US20120083476A1, “HETEROARYL-SUBSTITUTED SPIROCYCLIC DIAMINE UREA MODULATORS OF FATTY ACID AMIDE HYDROLASE” (Janssen Pharmaceutica NV, priority 2009, published 2012).
